Structures are written as SMILES. pIC50: −log10 of the molar value. Entries after “also recorded” stand apart in the source; their conditions may differ. Like-named read-outs stand apart in the source and are kept apart here.

In series [1] the test system is WAT (white adipose tissue) organ cultures. The series is described as follows: Lipolysis of isolated WAT organ cultures of wild-type, ATGL-ko and HSL-ko mice (FA release). Format: cell-based. The following applies: for FA release (lipolysis): 0, 10, 100, 200 µM inhibitor, fat pads of wt, ATGL-ko, HSL-ko mice; for selectivity between ATGL and HSL: lipolysis similarly decreased in ATGL and HSL deficient adipose tissue. The source says:
As the hydrazone moiety is regarded as a problematic molecular group due to its metabolic instability resulting in toxic side products,[12] we prepared compound 8 which can be regarded as a variant of 1a missing one nitrogen atom (Scheme 5). […] Taken together these efforts have shown that the hydrazone moiety is an essential element of the biological activity of the hit compound 1a and could not be replaced by the most obvious structural isosteres. In order to further characterize our hit compound 1a and best inhibitor 1h, these compounds were tested for ATGL- and HSL-selectivity by the determination of lipolysis in WAT (white adipose tissue) organ cultures of wild-type, ATGL-ko, and HSL-ko mice. […]
µM Inhibitor µM Inhibitor […]
(§1) (also on this page, place not known: µmol glycerol/h*mg protein nmol FFA/ml/min nmol FFA/h*mg nmol FFA/h*mg) […]
(§2) Lipolysis of isolated WAT organ cultures - Gonadal fat pads of wild-type, ATGL deficient (ATGL-ko), and HSL deficient (HSL-ko) mice were surgically removed and washed several times with PBS.
(§3) Tissue pieces (~15 mg) were preincubated in DMEM containing 0, 10, 100, and 200 µM inhibitors for 8 h at C37°C, 5% CO2, 95 % humidified atmosphere. Thereafter, the medium was replaced by DMEM containing 2 % BSA (fatty acid-free) and 0, 10, 100, and 200 µM inhibitors, and incubated for another 60 min at 37°C. Then, aliquots of the medium were removed and analyzed for FA and glycerol content using commercial kits (HR Series NEFA-HR(2), WAKO Diagnostics, Neuss, Germany; Sigma, St.
Louis, MO). For protein determinations, fat pads were washed extensively with PBS and lysed in 0.3 […]
U. et al. Monoglyceride lipase deficiency in mice impairs lipolysis and attenuates diet-induced insulin

The next series addresses T1, murine ATGL (Mus musculus, UniProt Q8BJ56).
T1 construct: expressed in transfected cells; host or cells: COS-7 (ATCC CRL-1651), transient transfection with Metafectene; crude lysate after 1000 x g spin
T1 sequence (Q8BJ56 1-486): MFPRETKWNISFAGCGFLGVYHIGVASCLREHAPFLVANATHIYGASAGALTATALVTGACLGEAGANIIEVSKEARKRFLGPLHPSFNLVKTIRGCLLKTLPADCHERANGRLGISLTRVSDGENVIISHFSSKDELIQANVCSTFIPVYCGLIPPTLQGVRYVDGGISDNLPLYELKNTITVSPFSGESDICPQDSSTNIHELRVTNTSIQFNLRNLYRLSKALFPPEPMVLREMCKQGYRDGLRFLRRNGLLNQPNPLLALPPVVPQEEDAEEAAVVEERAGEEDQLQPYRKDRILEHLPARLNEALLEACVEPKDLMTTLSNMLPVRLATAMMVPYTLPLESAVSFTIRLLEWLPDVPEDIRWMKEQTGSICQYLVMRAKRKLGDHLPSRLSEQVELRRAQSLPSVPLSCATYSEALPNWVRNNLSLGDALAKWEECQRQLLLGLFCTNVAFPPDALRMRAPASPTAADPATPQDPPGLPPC
The series is described as follows: Triglyceride hydrolase activity assay with COS7-cell lysate overexpressing recombinant murine ATGL, radiolabelled triolein substrate.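 For all read-outs here: radioactivity from the triolein substrate quantified by liquid scintillation counting after phase separation, reflecting triglyceride hydrolase activity of murine ATGL in lysates of transfected COS-7 cells.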 It is filed as biochemical. The following applies: for inhibition at 200 µM: 1 h, read-out: I200 (%); for pIC50 / biological activity against ATGL (in words): COS7-cell lysate overexpressing murine ATGL.

The test system of series [2] is AML-12 mouse hepatocytes cells. The series is described as follows: Tox 4 toxicity test (neutral red viability). It is filed as cell-based. The following applies: 1, 10, 100, 200 µM inhibitor. The method, then: Fig. S3: Toxicity test of inhibitor 1h using Tox 4-test with AML-12 mouse hepatocytes cells […]
as §2, §3
Louis, MO). […]
viability assays, cells were seeded at an initial density of […] cells per well in 12-well plates and cultured under standard conditions for 24 hours. […] After solubilization for 10 min at room temperature absorbance was measured at 540 nm.
Determination of MG hydrolase activity. Monoacylglycerol hydrolase activities were determined using recombinant, purified mMGL and rac-1-(3)-oleoylglycerol as substrate as described (Taschler, U. et al. Monoglyceride lipase deficiency in mice impairs lipolysis and attenuates diet-induced insulin

Series [3] concerns the target T2, monoglyceride lipase (MGL) (Mus musculus, UniProt O35678).
T2 sequence (O35678 1-303): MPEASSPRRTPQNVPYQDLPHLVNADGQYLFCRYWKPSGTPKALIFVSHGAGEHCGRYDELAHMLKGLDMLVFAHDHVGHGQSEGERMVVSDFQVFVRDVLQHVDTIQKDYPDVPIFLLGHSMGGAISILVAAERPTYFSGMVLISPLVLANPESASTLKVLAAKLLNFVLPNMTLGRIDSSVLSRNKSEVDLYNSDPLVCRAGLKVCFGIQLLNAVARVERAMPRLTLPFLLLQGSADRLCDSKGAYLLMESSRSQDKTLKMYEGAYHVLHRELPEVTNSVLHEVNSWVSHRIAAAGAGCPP
The series is described as follows: MG hydrolase activity with recombinant purified mMGL. Format: biochemical. The following applies: 100 µM compound. The method, then:
(§4) Structure-activity studies in the development of a hydrazone based inhibitor of adipose-triglyceride lipase (ATGL)
(§5) Nicole Mayer, Martina Schweiger, Michaela-Christina Melcher, Christian Fledelius, Rudolf Zechner, Robert Zimmermann and Rolf Breinbauer […]
(§6) µM Inhibitor µM Inhibitor
(§7) Fig. S1: Selectivity tests of 1a and 1h with white adipose tissue fat pads of wt, ATGL-ko, and […]
Fig S2. LPL (left) and Monoglyceride hydrolase (MGH) (right) activities in the absence or presence of 100 µM compound 1h.
as §1, §2
Tissue pieces (~15 mg) were preincubated in DMEM containing 0, 10, 100, and 200 µM inhibitors for 8 h at C37°C, 5% CO2, 95 % humidified atmosphere. […] Then, aliquots of the medium were removed and analyzed for FA and glycerol content using commercial kits (HR Series NEFA-HR(2), WAKO Diagnostics, Neuss, Germany; Sigma, St. […]
viability assays, cells were seeded at an initial density of […] cells per well in 12-well plates and cultured under standard conditions for 24 hours. […] After solubilization for 10 min at room temperature absorbance was measured at 540 nm. […]

The subject of a further series is lipoprotein lipase. The series is described as follows: LPL activity with purified recombinant LPL and triolein substrate. It is filed as biochemical. The following applies: 100 µM compound. How it is done:
The triolein (TO) substrate was prepared as described. In brief, 330 μM triolein (40,000 cpm/nmol) (GE Healthcare) was emulsified with 45 μM phosphatidylcholine/phosphatidylinositol (3:1) (Sigma) in 100 mM potassium phosphate buffer (pH 7.0) by sonication (Virsonic 475, Virtis) and was adjusted to 5% (w/v) fatty acid free bovine serum albumin (BSA, Sigma). 100 μL (20 μg protein) cell lysate or 2 μl purified recombinant LPL (Sigma–Aldrich) were incubated with 100 μL TO substrate in the presence or in the absence of inhibitors in a water bath for 1 h at 37 °C. After incubation, the reaction was terminated by adding 3.25 mL of methanol/chloroform/heptane (10:9:7) and 1 mL of 0.1 M potassium carbonate, 0.1 M boric acid (pH 10.5). After centrifugation (800 g, 15 min), the radioactivity in 1 mL of the upper phase was determined by liquid scintillation counting.
as §4, §5, §6, §7
Fig S2. LPL (left) and Monoglyceride hydrolase (MGH) (right) activities in the absence or presence of 100 µM compound 1h. […]

Where [4] appears, read: ATGL-inhibition efficiency at 200 μM inhibitor.

Description for murine ATGL: All synthesized test compounds were screened for their efficiency to inhibit ATGL activity in vitro in an assay using radiolabelled triolein as substrate.[20] As ATGL cannot be purified, the assays were performed with COS7-cell lysates from cells overexpressing recombinant murine ATGL. For the determination of the IC50-value inhibitors were administered with increasing concentrations to the enzyme and its substrate. To determine the ATGL-inhibition efficiency at 200 μM (I200), 200 μM inhibitor was administered to the enzyme and its substrate.
For the determination of TG hydrolase activity cell lysates of COS-7 cells overexpressing recombinant murine ATGL were used. Therefore, monkey embryonic kidney cells (Cos-7; ATCC CRL-1651) were cultivated in Dulbeccos modified eagles medium (DMEM, GIBCO, Invitrogen Corp., Carlsbad, CA), containing 10% fetal calf serum (FCS, Sigma–Aldrich) and antibiotics (100 IU/mL penicillin and 100 μg/mL streptomycin) at standard conditions (37 °C, 5% CO2, 95% humidified atmosphere). Cells were transfected with 1 μg DNA complexed to Metafectene (Biontex GmbH, Munich, Germany) in serum free DMEM. After 4 h the medium was replaced by DMEM supplemented with 10% FCS. For the preparation of cell lysates, cells were washed with 1× phosphate buffered saline, collected using a cell scraper, and disrupted in buffer A (0.25 M sucrose, 1 mM EDTA, 1 mM dithiothreitol, 20 μg/mL leupeptine, 2 μg/mL antipain, 1 μg/mL pepstatin, pH 7.0) by sonication (Virsonic 475, Virtis, Gardiner, NJ). Nuclei and unbroken cells were removed by centrifugation (1000×g, 4 °C, for 10 min). Protein concentration of the cell lysates were determined by Bio-Rad protein assay according to the manufacturer’s protocol (Bio-Rad 785, Bio-Rad Laboratories, Munich, Germany), using BSA as standard.
The triolein (TO) substrate was prepared as described. […] In brief, 330 μM triolein (40,000 cpm/nmol) (GE Healthcare) was emulsified with 45 μM phosphatidylcholine/phosphatidylinositol (3:1) (Sigma) in 100 mM potassium phosphate buffer (pH 7.0) by sonication (Virsonic 475, Virtis) and was adjusted to 5% (w/v) fatty acid free bovine serum albumin (BSA, Sigma). 100 μL (20 μg protein) cell lysate or 2 μl purified recombinant LPL (Sigma–Aldrich) were incubated with 100 μL TO substrate in the presence or in the absence of inhibitors in a water bath for 1 h at 37 °C. After incubation, the reaction was terminated by adding 3.25 mL of methanol/chloroform/heptane (10:9:7) and 1 mL of 0.1 M potassium carbonate, 0.1 M boric acid (pH 10.5). After centrifugation (800 g, 15 min), the radioactivity in 1 mL of the upper phase was determined by liquid scintillation counting.

What is called melting point is the temperature of the solid-liquid transition. By pIC50 is commonly meant the negative decadic logarithm of the IC50, by convention in mol/L. With `Oc1ccc(/C=N/N2CCN(c3ccccc3)CC2)cc1O` [Compound 1a, (E)-4-((4-Phenylpiperazin-1-ylimino)methyl)benzene-1,2-diol], the melting point came out at 180 °C. Further, in series [1], the “FA release (lipolysis)” value is recorded as “dose dependent reduction of FA release”; the “selectivity between ATGL and HSL” value is “no selectivity”. For the same molecule, the inhibition at 200 µM at murine ATGL (setting [4]) turned out to be 69%. Also, the pIC50 at murine ATGL was 3.96.
As for `Oc1ccc(/C=N/N2CCN(c3ccccc3)CC2)c(O)c1` [Compound 1h, (E)-4-(4-Phenylpiperazin-1-ylimino)methylbenzene-1,3-diol], the melting point fell in the range of 183 to 184 °C. Further, in series [1], the “FA release (lipolysis)” value is listed as “dose dependent reduction of FA release”; the “selectivity between ATGL and HSL” value was “no selectivity; also recorded: limited specificity”. For the same molecule, in series [2], the “toxicity (Tox 4 toxicity test)” value is “toxic; also recorded: intrinsic toxicity”. The “inhibition of monoglyceride lipase (MGL)” value in series [3] is reported as “does not inhibit”. On murine ATGL (setting [4]), the inhibition at 200 µM was found to be 94%. In addition, at murine ATGL, the pIC50 is 5.00. Moreover, in the series with lipoprotein lipase, the “inhibition of lipoprotein lipase” value is “does not inhibit”.
Consider `C(=N\N1CCN(c2ccccc2)CC1)/c1cccc2ccccc12` [Compound 2j, (E)-N-(Naphthalene-1-methylen)-4-phenylpiperazin-1-amine], for which the melting point is 118 °C. For the same molecule, the inhibition at 200 µM at murine ATGL (setting [4]) was found to be 49%.
On the same counts, the results for `Oc1ccc(/C=N/N2CCN(c3ccncc3)CC2)c(O)c1` [Compound 3a, (E)-4-((4-(Pyridine-4-yl)piperazin-1-ylimino)methyl)benzene-1,3-diol] are 270 to 273 °C (dec.) and 19%.
As to `Oc1ccc(/C=N/N2CCN(c3ccc(F)cc3)CC2)c(O)c1` [Compound 3b, (E)-4-((4-(4-Fluorophenyl)piperazin-1-ylimino)methyl)benzene-1,3-diol], the melting point fell in the range of 176 to 178 °C. Also, the inhibition at 200 µM at murine ATGL (setting [4]) worked out at 78%. For the same molecule, the pIC50 on murine ATGL is 4.30.
`Oc1ccc(/C=N/N2CCN(Cc3ccccc3)CC2)c(O)c1` [Compound 3d, (E)-4-((4-Benzylpiperazin-1-ylimino)methyl)benzene-1,3-diol] yielded a melting point of 225 to 228 °C. On murine ATGL (setting [4]), the inhibition at 200 µM worked out at 48%.
The matching figures for `Oc1ccc(/C=N/N2CCN(CCc3ccccc3)CC2)c(O)c1` [Compound 3e, (E)-4-((4-Phenethylpiperazin-1-ylimino)methyl)benzene-1,3-diol]: 211 to 214 °C and 14%.
The matching figures for `Oc1ccc(/C=N/N2CCN(C3CCCCC3)CC2)c(O)c1` [Compound 3f, (E)-4-((4-Cyclohexylpiperazin-1-ylimino)methyl)benzene-1,3-diol]: 247 to 249 °C (dec.) and 25%.
The matching figures for `Oc1ccc(/C=N/N2CCN(C3CCCC3)CC2)c(O)c1` [Compound 3g, (E)-4-((4-Cyclopentylpiperazin-1-ylimino)methyl)benzene-1,3-diol]: 237 to 239 °C (dec.) and 36%.
The molecule `Oc1ccc(/C=N/N2CCC(c3ccccc3)CC2)c(O)c1` [Compound 3h, (E)-4-((4-Phenylpiperidine-1-ylimino)methyl)benzene-1,3-diol] gave a melting point of 139 to 142 °C. The inhibition at 200 µM at murine ATGL (setting [4]) is 81%. Besides, on murine ATGL, the negative-log IC50 (pIC50) is 4.40.
For the molecule `Oc1ccc(/C=N/N2CCC(Cc3ccccc3)CC2)c(O)c1` [Compound 3i, (E)-4-((4-benzylpiperidine-1-ylimino)methyl)benzene-1,3-diol], the melting point is 138 to 141 °C. In addition, at murine ATGL (setting [4]), the inhibition at 200 µM was 26%.
The molecule `Oc1ccc(CN2CCN(c3ccccc3)CC2)cc1O` [Compound 8, 4-((4-Phenylpiperazin-1-yl)methyl)benzene-1,2-diol] displayed a melting point of 100 to 102 °C. For the same molecule, at murine ATGL, the inhibition at 200 µM was found to be 20% and the “biological activity against ATGL (in words)” value is “biologically inactive”.
Consider `COc1ccc(NC(=O)N2CCN(c3ccccc3)CC2)cc1OC` [Compound 12, N-(3,4-Dimethoxyphenyl)-4-phenylpiperazin-1-carboxamide], for which the melting point is 122 to 125 °C. Besides, the inhibition at 200 µM on murine ATGL (setting [4]) is 40%. Further, on murine ATGL, the “biological activity against ATGL (in words)” value is recorded as “no biological activity”.
In turn, `O=C(Oc1ccc(F)c(F)c1)N1CCN(c2ccccc2)CC1` [Compound 14, 3,4-Difluorophenyl-4-phenylpiperazin-1-carboxylate] yielded a melting point of 94 to 96 °C. In addition, the inhibition at 200 µM on murine ATGL (setting [4]) amounted to 57%. On murine ATGL, the pIC50 is 3.96.

Values taken from paper PMC4457358, “Structure–activity studies in the development of a hydrazone based inhibitor of adipose-triglyceride lipase (ATGL)” (Bioorganic & Medicinal Chemistry, 2015).
